According to patent US11414379B2, “SPAK kinase inhibitors as neuroprotective agents” (United States Government as represented by the Department …, priority 2018, dated 2022):

What was measured:
YES1 = YES1 (Homo sapiens, UniProt P07947); test: Kinase panel (Dundee profiling); format: biochemical; settings: read-out: % residual kinase activity
Protocol: (§1) The kinase selectivity of ZT-1a was further assessed using standard radioisotopic enzymatic assays against a panel of 140 recombinant kinases (Dundee profiling, Table 2) (Bain et al. (2007) The Biochemical journal 408, 297-315). ZT-1a at a concentration of 10 μM inhibited only MAPKAP-K2 activity 85±7% compared to DMSO control, representing high kinase selectivity.
(§2) Referring to Table 2, ZT-1a was tested at 10 and 1 μM against a panel of 140 recombinant kinases in an enzymatic activity-based assay performed by the International Centre for Kinase Profiling in the MRC Protein Phosphorylation and Ubiquitylation Unit. Values represent % residual kinase activity (mean+/−SEM, n=3). Kinases labelled with an asterick* are inhibited ≥50% by ZT-1a.

TBK1 = TBK1 (Homo sapiens, UniProt Q9UHD2); test: Kinase panel (Dundee profiling); format: biochemical; settings: read-out: % residual kinase activity
TBK1, sequence (Q9UHD2 whole entry, species assumed): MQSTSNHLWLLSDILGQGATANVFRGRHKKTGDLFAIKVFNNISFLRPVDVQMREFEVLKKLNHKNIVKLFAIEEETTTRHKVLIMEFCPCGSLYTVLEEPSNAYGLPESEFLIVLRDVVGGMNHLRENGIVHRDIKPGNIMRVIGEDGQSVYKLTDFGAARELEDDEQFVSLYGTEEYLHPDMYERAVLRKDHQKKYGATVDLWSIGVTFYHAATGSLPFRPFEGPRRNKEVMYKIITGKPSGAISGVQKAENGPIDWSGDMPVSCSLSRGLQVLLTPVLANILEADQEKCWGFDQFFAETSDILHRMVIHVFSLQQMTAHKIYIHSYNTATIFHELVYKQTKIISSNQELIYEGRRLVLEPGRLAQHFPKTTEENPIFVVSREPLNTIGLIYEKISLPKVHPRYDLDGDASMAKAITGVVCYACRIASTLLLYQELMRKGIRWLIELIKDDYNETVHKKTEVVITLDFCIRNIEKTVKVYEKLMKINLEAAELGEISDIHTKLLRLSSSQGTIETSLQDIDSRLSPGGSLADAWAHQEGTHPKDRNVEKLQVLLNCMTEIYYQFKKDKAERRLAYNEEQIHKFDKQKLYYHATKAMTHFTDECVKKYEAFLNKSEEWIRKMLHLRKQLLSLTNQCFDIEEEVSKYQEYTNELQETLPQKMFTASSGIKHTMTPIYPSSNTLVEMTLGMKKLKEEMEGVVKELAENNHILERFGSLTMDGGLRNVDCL
Protocol: as §1, §2

DYRK1A = DYRK1A (Homo sapiens, UniProt Q13627); test: Kinase panel (Dundee profiling); format: biochemical; settings: read-out: % residual kinase activity
Protocol: as §1, §2

CSK = CSK (Homo sapiens, UniProt P41240); test: Kinase panel (Dundee profiling); format: biochemical; settings: read-out: % residual kinase activity
Protocol: as §1, §2

TESK1 = TESK1 (Homo sapiens, UniProt Q15569); test: Kinase panel (Dundee profiling); format: biochemical; settings: read-out: % residual kinase activity
TESK1, sequence (Q15569 whole entry, species assumed): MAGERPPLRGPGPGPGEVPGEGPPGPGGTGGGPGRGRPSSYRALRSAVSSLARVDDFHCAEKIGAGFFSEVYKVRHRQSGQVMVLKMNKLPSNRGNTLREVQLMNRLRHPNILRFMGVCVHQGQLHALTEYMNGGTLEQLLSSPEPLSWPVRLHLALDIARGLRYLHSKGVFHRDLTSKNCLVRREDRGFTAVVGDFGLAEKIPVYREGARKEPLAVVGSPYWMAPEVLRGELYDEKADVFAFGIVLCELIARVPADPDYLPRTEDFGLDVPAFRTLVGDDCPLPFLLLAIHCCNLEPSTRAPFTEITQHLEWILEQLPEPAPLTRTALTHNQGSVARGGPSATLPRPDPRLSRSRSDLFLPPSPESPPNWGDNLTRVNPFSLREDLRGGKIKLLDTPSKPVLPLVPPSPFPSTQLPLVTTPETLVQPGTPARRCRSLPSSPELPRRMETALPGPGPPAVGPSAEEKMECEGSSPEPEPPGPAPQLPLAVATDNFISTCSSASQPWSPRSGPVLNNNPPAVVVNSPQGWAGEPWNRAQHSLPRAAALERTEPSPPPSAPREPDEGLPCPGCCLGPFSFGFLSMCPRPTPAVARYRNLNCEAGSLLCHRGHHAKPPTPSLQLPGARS
Protocol: as §1, §2

NUAK1 = NUAK1 (Homo sapiens, UniProt O60285); test: Kinase panel (Dundee profiling); format: biochemical; settings: read-out: % residual kinase activity
NUAK1, sequence (O60285 whole entry, species assumed): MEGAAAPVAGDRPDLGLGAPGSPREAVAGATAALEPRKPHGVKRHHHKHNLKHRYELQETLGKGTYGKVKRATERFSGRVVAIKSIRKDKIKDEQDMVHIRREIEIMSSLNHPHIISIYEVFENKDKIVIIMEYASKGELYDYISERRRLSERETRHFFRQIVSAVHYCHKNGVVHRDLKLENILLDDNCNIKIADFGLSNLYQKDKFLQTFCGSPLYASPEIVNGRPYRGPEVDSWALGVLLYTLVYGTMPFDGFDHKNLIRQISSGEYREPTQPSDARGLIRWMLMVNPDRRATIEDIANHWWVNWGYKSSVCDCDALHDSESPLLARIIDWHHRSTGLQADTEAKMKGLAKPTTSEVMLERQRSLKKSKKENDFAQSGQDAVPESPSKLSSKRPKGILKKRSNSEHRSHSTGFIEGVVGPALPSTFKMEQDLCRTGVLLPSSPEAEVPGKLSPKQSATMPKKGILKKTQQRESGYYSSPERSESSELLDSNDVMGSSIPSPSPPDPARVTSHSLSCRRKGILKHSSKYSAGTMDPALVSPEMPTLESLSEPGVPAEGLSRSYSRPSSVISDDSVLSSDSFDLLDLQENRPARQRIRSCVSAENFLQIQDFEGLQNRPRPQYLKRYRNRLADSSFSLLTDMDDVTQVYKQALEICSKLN
Protocol: as §1, §2

CDK2-Cyclin A = CDK2-Cyclin A (Homo sapiens, UniProt P24941); test: Kinase panel (Dundee profiling); format: biochemical; settings: read-out: % residual kinase activity
Protocol: as §1, §2

EPH-A2 = EPH-A2 (Homo sapiens, UniProt P29317); test: Kinase panel (Dundee profiling); format: biochemical; settings: read-out: % residual kinase activity
EPH-A2, sequence (P29317 24-976, species assumed): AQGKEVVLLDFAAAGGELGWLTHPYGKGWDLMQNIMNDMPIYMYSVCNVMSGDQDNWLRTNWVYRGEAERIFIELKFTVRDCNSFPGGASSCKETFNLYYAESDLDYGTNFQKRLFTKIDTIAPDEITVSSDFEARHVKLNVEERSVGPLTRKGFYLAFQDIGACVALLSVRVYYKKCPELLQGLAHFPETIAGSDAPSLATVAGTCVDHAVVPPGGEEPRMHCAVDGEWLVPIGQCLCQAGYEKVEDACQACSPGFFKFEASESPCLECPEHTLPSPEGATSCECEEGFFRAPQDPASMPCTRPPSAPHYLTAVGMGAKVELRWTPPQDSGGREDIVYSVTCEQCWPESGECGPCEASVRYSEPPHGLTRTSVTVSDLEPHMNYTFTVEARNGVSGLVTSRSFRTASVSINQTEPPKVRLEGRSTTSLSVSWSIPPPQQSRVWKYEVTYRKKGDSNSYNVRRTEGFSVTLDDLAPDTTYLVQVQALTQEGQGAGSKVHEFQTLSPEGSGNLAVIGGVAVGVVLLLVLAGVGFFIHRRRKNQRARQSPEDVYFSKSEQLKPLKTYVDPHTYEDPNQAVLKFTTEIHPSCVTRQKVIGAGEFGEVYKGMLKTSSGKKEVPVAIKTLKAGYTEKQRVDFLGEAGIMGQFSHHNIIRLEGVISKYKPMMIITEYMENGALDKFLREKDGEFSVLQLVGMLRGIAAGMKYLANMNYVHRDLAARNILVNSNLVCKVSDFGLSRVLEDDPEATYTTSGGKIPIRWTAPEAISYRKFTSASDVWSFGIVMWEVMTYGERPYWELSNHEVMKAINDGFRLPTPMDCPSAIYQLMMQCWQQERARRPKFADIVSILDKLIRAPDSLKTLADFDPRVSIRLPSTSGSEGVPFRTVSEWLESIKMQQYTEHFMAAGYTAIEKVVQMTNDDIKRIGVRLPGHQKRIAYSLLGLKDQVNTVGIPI
Protocol: as §1, §2

ULK2 = ULK2 (Homo sapiens, UniProt Q8IYT8); test: Kinase panel (Dundee profiling); format: biochemical; settings: read-out: % residual kinase activity
ULK2, sequence (Q8IYT8 whole entry, species assumed): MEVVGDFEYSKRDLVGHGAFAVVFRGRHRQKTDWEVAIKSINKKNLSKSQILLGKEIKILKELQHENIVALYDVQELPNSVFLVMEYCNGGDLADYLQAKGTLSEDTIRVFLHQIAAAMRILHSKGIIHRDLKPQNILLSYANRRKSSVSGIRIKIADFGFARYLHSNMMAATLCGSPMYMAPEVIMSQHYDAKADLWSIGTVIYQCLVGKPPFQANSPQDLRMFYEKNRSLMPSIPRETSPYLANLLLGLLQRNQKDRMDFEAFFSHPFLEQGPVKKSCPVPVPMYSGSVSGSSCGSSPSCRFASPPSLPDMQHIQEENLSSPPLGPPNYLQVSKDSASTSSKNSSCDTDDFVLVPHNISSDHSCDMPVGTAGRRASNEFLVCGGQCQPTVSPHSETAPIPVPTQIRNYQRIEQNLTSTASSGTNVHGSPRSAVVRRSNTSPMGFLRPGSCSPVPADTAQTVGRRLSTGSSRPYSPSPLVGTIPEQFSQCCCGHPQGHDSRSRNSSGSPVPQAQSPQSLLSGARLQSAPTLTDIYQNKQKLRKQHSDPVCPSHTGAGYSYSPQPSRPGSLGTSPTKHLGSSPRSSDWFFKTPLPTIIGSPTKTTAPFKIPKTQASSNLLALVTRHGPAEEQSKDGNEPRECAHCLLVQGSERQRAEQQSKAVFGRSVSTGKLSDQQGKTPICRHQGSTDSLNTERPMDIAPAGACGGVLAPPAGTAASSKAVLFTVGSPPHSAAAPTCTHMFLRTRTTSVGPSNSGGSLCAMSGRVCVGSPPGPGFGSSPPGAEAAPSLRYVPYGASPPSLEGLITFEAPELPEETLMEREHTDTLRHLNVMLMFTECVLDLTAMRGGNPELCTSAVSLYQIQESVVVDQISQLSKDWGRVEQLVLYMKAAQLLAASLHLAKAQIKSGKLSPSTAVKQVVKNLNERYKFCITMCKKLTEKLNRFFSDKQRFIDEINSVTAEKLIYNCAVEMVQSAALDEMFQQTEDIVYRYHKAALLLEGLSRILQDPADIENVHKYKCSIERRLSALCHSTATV
Protocol: as §1, §2

PAK2 = PAK2 (Homo sapiens, UniProt Q13177); test: Kinase panel (Dundee profiling); format: biochemical; settings: read-out: % residual kinase activity
PAK2, sequence (Q13177 whole entry, species assumed): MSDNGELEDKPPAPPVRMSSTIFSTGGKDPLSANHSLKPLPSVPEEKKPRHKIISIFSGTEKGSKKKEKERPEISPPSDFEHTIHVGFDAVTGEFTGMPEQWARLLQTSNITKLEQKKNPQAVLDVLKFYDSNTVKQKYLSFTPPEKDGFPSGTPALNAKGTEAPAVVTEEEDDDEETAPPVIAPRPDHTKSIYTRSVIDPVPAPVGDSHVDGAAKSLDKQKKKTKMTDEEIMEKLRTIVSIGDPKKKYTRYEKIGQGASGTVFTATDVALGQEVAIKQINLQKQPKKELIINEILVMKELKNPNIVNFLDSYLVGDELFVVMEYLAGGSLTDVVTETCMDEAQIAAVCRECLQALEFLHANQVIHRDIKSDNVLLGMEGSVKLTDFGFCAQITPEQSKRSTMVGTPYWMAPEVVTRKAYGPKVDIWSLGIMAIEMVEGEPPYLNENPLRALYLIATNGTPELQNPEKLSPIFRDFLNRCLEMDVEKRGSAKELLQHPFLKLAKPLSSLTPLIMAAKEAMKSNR
Protocol: as §1, §2

MEKK1 = MEKK1 (Homo sapiens, UniProt Q13233); test: Kinase panel (Dundee profiling); format: biochemical; settings: read-out: % residual kinase activity
Protocol: as §1, §2

NKCC1 pThr203 = test: Phosphorylation immunoblot in KCC2-transfected HEK293 cells; format: cell-based, human
Protocol: HEK293 (human embryonic kidney 293) cells were cultured on 10-cm-diameter dishes in DMEM supplemented with 10% (v/v) foetal bovine serum, 2 mM L-glutamine, 100 U/ml penicillin and 0.1 mg/ml streptomycin. HEK293 cells were transfected with a mixture of 20 μl of 1 mg/ml polyethylenimine (Polysciences) and 5-10 μg of plasmid DNA as described previously (Durocher et al., 2002). 36 hours post-transfection cells were stimulated with either control isotonic or hypotonic medium for a period of 30 minutes. Cells were lysed in 0.3 mL of ice-cold lysis buffer/dish, lysates were clarified by centrifugation at 4° C. for 15 minutes at 26,000 g and the supernatant aliquots were frozen in liquid nitrogen and stored at −20° C. Protein concentrations were determined using the Bradford method. Cells were treated with the indicated concentrations of the SPAK/OSR1 inhibitors. […] Hypotonic low chloride buffer was 67.5 mM sodium-gluconate, 2.5 mM potassium-gluconate, 0.25 mM CaCl2), 0.25 mM MgCl2, 0.5 mM Na2HPO4, 0.5 mM Na2SO4 and 7.5 mM HEPES (pH 7.5).
The membranes were incubated for 30 min with TBST (Tris-buffered saline, 0.05% Tween-20) containing 5% (w/v) skim milk. The blots were then washed six times with TBST and incubated for 1 hour at room temperature with secondary HRP-conjugated antibodies diluted 5000-fold in 5% (w/v) skim milk in TBST. After repeating the washing steps, signals were detected with enhanced chemiluminescence reagent. Immunoblots were developed using a film automatic processor (SRX-101; Konica Minolta Medical) and films were scanned at 600 dpi (PowerLook 1000; UMAX). Figures were generated using Photoshop/Illustrator (Adobe). The densities of bands were measured with ImageJ. For phospho-antibody immunoprecipitation, KCC isoforms were immunoprecipitated from indicated cell extracts. 2 mg of the indicated clarified cell extract were mixed with 15 μg of the indicated phospho-specific KCC antibody conjugated to 15 μl of protein-G-Sepharose, in the added presence of […] of the dephosphorylated form of the phosphopeptide antigen, and incubated 2 hours at 4° C. with gentle shaking. Immunoprecipitates were washed three times with 1 mL of lysis buffer containing 0.15 M NaCl and twice with 1 ml of buffer A. Bound proteins were eluted with 1×LDS sample buffer.
HEK293 cells were transfected with a DNA construct encoding wild type N-terminally FLAG-tagged KCC2. 36 hrs post-transfection, cells were exposed 30 min to either control isotonic or hypotonic low [C1^−] conditions, then treated in the same conditions for an additional 30 min with the indicated inhibitors at the concentrations noted. Cell lysates were subjected to SDS-PAGE and Western blotting with the indicated antibodies. See FIG. 3 for Western blot quantitation.
Referring to FIG. 2, concentration-response experiments testing effects of Closantel analogs on phosphorylation of KCC2 Thr906/Thr1007 are shown. HEK293 cells were transfected with DNA construct encoding wild type N-terminally FLAG-tagged KCC2. 36 h post-transfection, cells were exposed 30 min to either control isotonic conditions or hypotonic low Cl^− conditions, then treated in the same conditions with the specified inhibitors (1b, 1c, 1f, 1d, 1h, and 1g, respectively) at the indicated concentrations for an additional 30 min. Lysates were subjected to SDS-PAGE and Western blotting with the indicated antibodies.
Referring to FIG. 3, HEK293 cells were transfected with the DNA construct encoding wild type N-terminally FLAG-tagged KCC2. 36 h post-transfection, cells were exposed 30 min to either control isotonic or hypotonic low Cl^− conditions, then treated in the same conditions with the specified inhibitors at the indicated concen-trations for an additional 30 min. Lysates were subjected to SDS-PAGE and Western blotting with the indicated antibodies. Closantel, STOCK1S-14279 and STOCK1S-50699 were used as reference compounds.

YES1, sequence (P07947 whole entry, species assumed): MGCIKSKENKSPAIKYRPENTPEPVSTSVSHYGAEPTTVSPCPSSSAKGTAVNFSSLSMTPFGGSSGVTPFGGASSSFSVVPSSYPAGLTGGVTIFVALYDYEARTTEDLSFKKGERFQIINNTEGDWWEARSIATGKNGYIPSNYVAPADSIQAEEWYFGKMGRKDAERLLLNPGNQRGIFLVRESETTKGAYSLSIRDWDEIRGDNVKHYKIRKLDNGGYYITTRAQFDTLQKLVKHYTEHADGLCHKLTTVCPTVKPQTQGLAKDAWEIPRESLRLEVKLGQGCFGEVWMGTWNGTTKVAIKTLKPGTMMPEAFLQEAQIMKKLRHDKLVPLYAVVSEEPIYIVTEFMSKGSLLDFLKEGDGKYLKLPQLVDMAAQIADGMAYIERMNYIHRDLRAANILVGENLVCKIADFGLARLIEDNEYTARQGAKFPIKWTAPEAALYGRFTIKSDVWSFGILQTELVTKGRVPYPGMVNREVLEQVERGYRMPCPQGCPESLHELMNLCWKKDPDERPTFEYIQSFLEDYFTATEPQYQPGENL

Question: What does the source list for Cc1cc(C(C#N)c2ccc(Cl)cc2)c(Cl)cc1NC(=O)c1cc(Cl)ccc1O (stereo not shown) [ZT-1a, 5-chloro-N-(5-chloro-4-((4-chlorophenyl)(cyano)methyl)-2-methylphenyl)-2-hydroxy-benzamide]?
Answer: remaining activity at 1 µM (YES1; 1 μM): 109 ± 3%; remaining activity at 10 µM (YES1; 10 μM): 98 ± 7%; remaining activity at 1 µM (TBK1; 1 μM): 119 ± 10%; remaining activity at 10 µM (TBK1; 10 μM): 94 ± 3%; remaining activity at 1 µM (DYRK1A; 1 μM): 119 ± 7%; remaining activity at 10 µM (DYRK1A; 10 μM): 103 ± 1%; remaining activity at 1 µM (CSK; 1 μM): 96 ± 8%; remaining activity at 10 µM (CSK; 10 μM): 106 ± 29%; remaining activity at 1 µM (TESK1; 1 μM): 109 ± 3%; remaining activity at 10 µM (TESK1; 10 μM): 77 ± 10%; remaining activity at 1 µM (NUAK1; 1 μM): 52 ± 7%; remaining activity at 10 µM (NUAK1; 10 μM): 61 ± 16%; remaining activity at 1 µM (CDK2-Cyclin A; 1 μM): 128 ± 12%; remaining activity at 10 µM (CDK2-Cyclin A; 10 μM): 125 ± 6%; remaining activity at 1 µM (EPH-A2; 1 μM): 89 ± 23%; remaining activity at 10 µM (EPH-A2; 10 μM): 78 ± 11%; remaining activity at 1 µM (ULK2; 1 μM): 110 ± 11%; remaining activity at 10 µM (ULK2; 10 μM): 49 ± 9%; remaining activity at 1 µM (PAK2; 1 μM): 110 ± 4%; remaining activity at 10 µM (PAK2; 10 μM): 93 ± 8%; remaining activity at 1 µM (MEKK1; 1 μM): 109 ± 1%; remaining activity at 10 µM (MEKK1; 10 μM): 93 ± 16%; inhibition at 1 µM (NKCC1 pThr203; Homo sapiens, read-out: inhibition of NKCC1 p-Thr203/207/212, up to, at 1 μM, n=4): ≤ 72%; NKCC1 pThr203 (μM) hypo (NKCC1 pThr203; hypotonic low Cl- conditions, concentration inhibiting phosphorylation): 1, 1 μM; NKCC1 pThr203 (μM) Iso (NKCC1 pThr203; isotonic conditions, concentration inhibiting phosphorylation): 1, 1 μM
